Laboratory results from US6126795A, “Electroenzymatic reactor and method for enzymatic catalysis” (The United States of America as represented by the …, priority 1998, dated 2000).

B1: Pdx: putidaredoxin, a 2Fe-2S protein, redox carrier of the CYP101 system (protein, UniProt P00259 2-107, looked up)
Putidaredoxin: SKVVYVSHDGTRRELDVADGVSLMQAAVSNGIYDIVGDCGGSASCATCHVYVNEAFTDKVPAANEREIGMLECVTAELKPNSRLCCQIIMTPELDGIVVDVPDRQW

Legend:
[1] = biological target: CYP101 (Pseudomonas putida, UniProt P00183); experiment: Electrode-driven camphor hydroxylation by CYP101/Pdx in electroenzymatic reactor; assay type: biochemical
Excerpt: The proteins were then purified using ion-exchange chromatography and size exclusion chromatography. The final protein preparations were at least 95% pure. On the basis of absorbance ratios, the mole fraction purity ×100 of each subunit protein was greater than 90. In addition, several preparations of the proteins were examined by high-resolution two-dimensional gel electrophoresis and by imaging analysis, and the mole fraction purity ×100 was estimated to be greater than 97 for each protein.
The working electrodes used in the following examples were antimony-doped, tin-oxide coated (0.3 μm thickness) glass slides (4×2 cm, Delta Technologies, Stillwater, Min.), with donor concentration as determined from Mott-Schottky plots (Nd =5×10^20 cm^-3). Prior to the biocatalysis experiments, the electrodes were soaked and sonicated in 1 M NaOH for approximately two hours, then rinsed with distilled water. They were activated in 15% HCl solution using a potential sweep between -0.5 and 1.5 V at 10 mV/s, and stored in distilled water. Film electrode resistance, as measured by a four point probe (Cascade Mictrotech, Inc., Model C4A-44 Beaverton, Oreg.), was 40-50 .OMEGA./sq.
The reference electrode was a standard Ag/AgCl (3M KCl) reference micro-electrode (Abtech Inc. RE803). The counter electrode was made as a coil of 0.5 mm thick Pt wire.
The buffer media was prepared using 0.16 M aqueous KCl and 0.01 M aqueous MgCl2, adjusted to about pH 7.4 with Tris-HCl buffer.
The product, 5-exo-hydroxy-camphor, was identified by GC-MS (gas chromatography and mass spectrophotometry) and quantified by GC-FID (gas chromatography and flame ionization detection). GC injection samples of 1-2 μL were prepared from approximately equal volumes of reaction mixture and an extraction cocktail comprising 0.3 g methylene chloride and 0.02 g KCl with 300 μM n-decane as an internal standard. The GC was operated with a DB-5 column (J&W Scientific, Folsom, Calif.) (30 m) with temperature programing (2 minutes at 60° C., ramp at 10° C./min to 120° C., 2 min at 120° C., ramp up at 15° C./min 160° C.). Retention times (He carrier gas at 2.8 bar pressure) were: n-decane 4.7 minutes, camphor 7.0 minutes, 5-exo-hydroxy-camphor 10.9 minutes. […] Identification of 5-exo-hydroxy-camphor as the product was done by comparing the m/e (mass/charge ratio) pattern (VG analytical Mass Spectrometer, 70 eV electron impact energy) with published spectra; see White et al., Arch. Biochem. Biophys.228, 493-502, 1984, the disclosure of which is incorporated herein by reference.
The same cell as described in Example 1 was equipped with two antimony-doped, tin-oxide electrodes and one platinum wire counter electrode. […] Electrolysis was started by applying a potential equal to -0.7 V (vs Ag/AgCl) to the tin oxide electrodes. […] Therefore, the enzyme underwent about 20 turnovers during the four hour period.
The same cell as described in Example 1 was equipped with-one antimony-doped, tin-oxide electrode and a Pt wire counter electrode isolated by a glass frit. A Pt sheet (0.5×10×30 mm) was positioned close to the surface of the working electrode. […] Initial GC analysis indicated no trace of the product. A potential equal to -0.7 V (vs Ag/AgCl) was applied to the tin oxide electrode. The Pt sheet was left at open circuit potential. After 5 hours of electrolysis, during which the solution was stirred by a magnetic stirrer, 442 μM product (5-exo-hydroxy-camphor) was detected by GC analysis. This corresponds to 1922 turnovers of the enzyme at an average rate of 384 turnovers/hour.
An antimony-doped, tin-oxide working electrode was wrapped in a Pt grid, which was electrically isolated from the conductive side of the electrode. A Pt wire, isolated from the working electrode and Pt grid by a glass frit, was utilized as a counter electrode. […]

[2] = Pdx integrity/activity after electrolysis and redox behaviour on antimony-doped tin-oxide electrode; assay type: physicochemical
Experimental: In a 1 cm path-length spectrophotometer cell, with 30 μM Pdx in the above-specified buffer, a potential of -0.7 V (vs. Ag/AgCl) was applied using a potentiostat, and an absorption spectrum was recorded through the transparent SnO2 electrode and 1 cm of reactor solution. The electrode surface area to solution volume ratio was about 5/m. A characteristic absorption spectrum of the oxidized Pdx was recorded initially. After 30 minutes of electrolytic reduction at -0.7 V, a characteristic spectrum of reduced Pdx was recorded. After an additional 30 minutes of electrolysis, the potential was switched to 0 V and a characteristic spectrum of oxidized Pdx was obtained. After electrolysis was complete, 50% of the initial activity of Pdx was recovered, as determined by the method described in Phillips and Langdon, J. Biol. Chem., 237, 2652 (1962), the disclosure of which is incorporated herein by reference. […] The recorded current-potential dependencies were stable and reproducible throughout the 6 hour period. […] The method described in this Example can be used to determine whether the working electrode has redox activity toward the redox carrier.
An antimony-doped, tin-oxide working electrode was wrapped in a Pt grid, which was electrically isolated from the conductive side of the electrode. A Pt wire, isolated from the working electrode and Pt grid by a glass frit, was utilized as a counter electrode. […] After 15.5 hours or electrolysis at -0.65 V (vs Ag/AgCl) and room temperature with continuous stirring, the solution contained 222 μM of product (5-exo-hydroxy-camphor), which corresponds to 1127 turnovers of the enzyme.

Row | Molecule | Product Turnover Rate ([1]; 12.8 μM CYP101 (no Pdx), Argon Purge, 800 μM camphor, -0.7 V, 21-22° C.) | Product Turnover Rate ([1]; 41 μM Pdx (no CYP101), Argon Purge, 800 μM camphor, -0.7 V, 21-22° C.) | Product Turnover Rate ([1]; 41 μM Pdx + 0.41 μM CYP101, Air Saturated, 800 μM camphor, -0.7 V, 21-22° C.) | Product Turnover Rate ([1]; 55 μM Pdx + 0.18 μM CYP101, Argon Purge, 800 μM camphor, -0.7 V, 21-22° C.) | Product Turnover Rate ([1]; 108 μM Pdx + 0.23 μM CYP101, Argon Purge, 800 μM camphor, -0.7 V, 21-22° C.) | Product Turnover Rate ([1]; 1030 μM Pdx + 0.13 μM CYP101, Argon Purge, initial camphor 2 mM, -0.7 V, 21-22° C.) | Product Turnover Rate ([1]; 1030 μM Pdx + 0.13 μM CYP101, Argon Purge, initial camphor concentration was mM, 37° C., -0.7 V) | turnovers of the enzyme ([1]; Example 2: 10 μM CYP101, 118 μM Pdx, 600 μM camphor, -0.7 V, 240 minutes, argon purge) | average rate of enzyme turnover ([1]; Example 3: 0.23 μM CYP101, 108 μM Pdx, 626 μM camphor, -0.7 V, 5 hours) | turnovers of the enzyme ([1]; Example 3: 0.23 μM CYP101, 108 μM Pdx, 626 μM camphor, -0.7 V, 5 hours, Pt sheet near working electrode) | turnovers of the enzyme ([1]; Example 4: 0.2 μM CYP101, 101 μM Pdx, 650 μM camphor, -0.65 V, 15.5 hours, room temperature, Pt grid) | formal potential [2] | initial activity of Pdx recovered after electrolysis ([2]; Example 1: 30 μM Pdx, electrolysis at -0.7 V then 0 V on SnO2 electrode) | Pdx remaining intact after electrolysis (% of the initial concentration) ([2]; Example 4: 101 μM initial Pdx, 15.5 hours at -0.65 V) | Pdx remaining intact after electrolysis (concentration) ([2]; Example 4: 101 μM initial Pdx, 15.5 hours at -0.65 V, spectrophotometric analysis)
1 | CC12CCC(CC1=O)C2(C)C (stereo not drawn) [camphor] | 0 nmol 5exo-hydroxy-camphor/min/ | 0 nmol 5exo-hydroxy-camphor/min/ | 0.9 nmol 5exo-hydroxy-camphor/min/ | 4.2 nmol 5exo-hydroxy-camphor/min/ | 6.4 nmol 5exo-hydroxy-camphor/min/ | 34 nmol 5exo-hydroxy-camphor/min/ | 36 nmol 5exo-hydroxy-camphor/min/ | about 20 turnovers | 384 turnovers/hour | 1922 turnovers | 1127 turnovers |  |  |  | 
2 | B1 |  |  |  |  |  |  |  |  |  |  |  | -0.42 V vs Ag/AgCl | 50% | about 85% | about 85 μM
